Data published in BindingDB's records for PubMed 37487305 (Zhengzhou University).
pIC50: −log10 of the molar value.

Molecular target: Histone deacetylase 1 (Homo sapiens, UniProt Q13547)
Assay: Inhibition of HDAC1 (unknown origin) by fluorescence based microplate reader assay

Chain of Histone deacetylase 1 (Q13547 whole entry): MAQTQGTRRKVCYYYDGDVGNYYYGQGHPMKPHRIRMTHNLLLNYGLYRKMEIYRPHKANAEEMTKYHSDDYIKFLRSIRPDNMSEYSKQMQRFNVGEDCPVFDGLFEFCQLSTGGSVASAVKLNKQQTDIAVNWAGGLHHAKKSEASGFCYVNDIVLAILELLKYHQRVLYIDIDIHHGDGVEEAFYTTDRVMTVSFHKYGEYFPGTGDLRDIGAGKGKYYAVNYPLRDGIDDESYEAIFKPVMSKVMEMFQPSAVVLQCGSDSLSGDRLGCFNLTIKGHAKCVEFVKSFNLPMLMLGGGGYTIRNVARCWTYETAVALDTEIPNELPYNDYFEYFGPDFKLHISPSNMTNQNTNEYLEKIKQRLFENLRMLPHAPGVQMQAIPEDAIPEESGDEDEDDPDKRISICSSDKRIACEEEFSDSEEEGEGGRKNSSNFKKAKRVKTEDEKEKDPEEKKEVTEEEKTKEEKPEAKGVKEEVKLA

With `CN1c2ccccc2C(=O)N2[C@H](C(=O)Nc3ccc(C(=O)Nc4ccccc4N)cc3)Cc3c([nH]c4ccccc34)[C@@H]12` as the molecule, how does the pIC50 read?
Its pIC50 is 6.80.
